US6440965B1, “Substituted pyrimidine derivatives, their preparation and their use in the treatment of neurodegenerative or neurological disorders of the central nervous system” (Krenitsky Pharmaceuticals, Inc., priority 1997, dated 2002)

Legend:
[1] = system: PC12 cells; experiment: Screen for NGF-like activity in cultured PC12 cells (neurite outgrowth, potentiation of NGF); format: cell-based, rat; conditions: 2 days incubation, with or without a limiting concentration of NGF
Procedure: Cultured PC12 cells (rat adrenal pheochromocytoma from ATCC) have receptors for NGF. Responses include promotion of neurite outgrowth and elevation of choline acetyltransferase (ChAT) (L. A. Greene and A. S. Tischler, Cell Neurobiol., 3, 373 (1982)).
The following assay is substantially as described in H L White and P W Scates, Neurochem. Res., 16, 63 (1991). PC12 cells were cultured at 37° C. in DMEM supplemented with fetal bovine serum, horse serum, glutamine, penicillin, streptomycin and non-essential amino acids. Cultures were split 1:4 every 4 or 5 days. Exponentially dividing cells were plated in fresh medium on collagen-coated 12-well plastic dishes. After allowing one day for cell attachment, the medium was replaced with low serum medium, with or without test compounds and also with or without a limiting concentration of NGF, with each condition in triplicate. The medium may contain up to 0.1% ethanol, which was used as a solvent for most compounds being tested. Cells were examined daily for morphological changes using an Olympus IMT-2 inverted research microscope. After 2 days incubation with test compounds, cells and media were transferred to 1.5 mL Eppendorf tubes. Aliquots of 20 uL were reserved for cell counting and viability determination by trypan blue exclusion. The remaining cell suspensions were centrifuged, and the cell pellets were washed once in serum-free medium and finally resuspended in 30 uL of distilled water containing eserine, an inhibitor of acetylcholinesterase. The suspensions were stored at −80° C. until they were assayed for choline acetyltransferase. Compounds are judged NGF-like in this primary screen if they (1) increase the activity of choline acetyltransferase, (2) enhance NGF-stimulated neurite outgrowth or (3) potentiate and appear additive with the action of NGF itself.

[2] = system: PC-12 cells; conditions: cited from earlier work
[3] = system: working memory; conditions: mice; cited from earlier work

SMILES | melting point | NGF-like in vitro activity (ChAT increase, enhancement of NGF-stimulated neurite outgrowth and/or potentiation of NGF) [1] | other results
Nc1ncc(Cc2ccc(Cl)cc2)c(NCCCCO)n1 [2-Amino-4-[2-(2-hydroxyethyl)ethylamino]-5-(4-chlorobenzyl)pyrimidine] |  | especially potent activities | 
CC(C)(C)C(=O)OCCN1CCN(c2nc(N)ncc2Oc2ccc(Cl)cc2)CC1 | 123 to 125 °C |  | 
Nc1ncc(Oc2ccc(Cl)cc2)c(N2CCN(C=O)CC2)n1 [2-amino-5-(4-chlorophenoxy)-4-(4-formylpiperazino)pyrimidine] |  | especially potent activities | 
Nc1ncc(Cc2ccc(Cl)cc2)c(N2CCC(O)CC2)n1 [2-Amino-5-(4-chlorobenzyl)-4-(4-hydroxypiperidino)pyrimidine] |  | especially potent activities | 
CN1CCN(c2nc(N)ncc2Oc2ccc(Cl)cc2)CC1 [2-amino-5-(4-chlorophenoxy)-4-(4-methylpiperazino)pyrimidine] |  | especially potent activities | 
O=C(CCn1cnc2c(=O)[nH]cnc21)Nc1ccc(C(=O)O)cc1 [AIT-082, 4[[3-(1,6-dihydro-6-oxo-9-purin-9-yl)-1-oxopropyl]amino]benzoic acid] |  |  | NGF action in cultured PC-12 cells [2]: enhance NGF action; age induced working memory deficits [3]: restore age induced working memory deficits

Continued, in another order:

melting point | SMILES | NGF-like in vitro activity (ChAT increase, enhancement of NGF-stimulated neurite outgrowth and/or potentiation of NGF) [1] | other results
140 to 141 °C | Cl.Nc1ncc(Oc2ccc(Cl)cc2)c(NCCOCCO)n1 |  | 
93 to 95 °C | Nc1ncc(Oc2ccc(Cl)cc2)c(N2CCNCC2)n1 |  | 
181 to 182 °C | CN(C)c1nc(N)ncc1Cc1ccccc1 |  | 
153 to 157 °C | CC(=O)N1CCN(c2nc(N)ncc2Oc2ccc(Cl)cc2)CC1 |  | 
138 to 140 °C | Nc1ncc(Oc2ccc(Cl)cc2)c(N2CCOCC2)n1 |  | 
229 to 231 °C | O=C(Nc1ccccc1)Nc1ncc(Oc2ccc(Cl)cc2)c(N2CCOCC2)n1 |  | 
121 to 123 °C | Nc1ncc(Oc2ccc(Cl)cc2)c(N2CCN(CCO)CC2)n1 |  | 
